Literature values, collected in patent publication US12630850B2, “Enzymatic break down of chlorogenic acid in sunflower-containing products” (Chapman University, priority 2022, dated 2026).

Key:
[1] = Kabir et al., 2014; cited from earlier work
[2] = p-nitrophenyl acetate, between 20° C. and 40° C.; cited from earlier work
[3] = Lai et al., 2009; cited from earlier work

Molecule	pKa [1]	also measured
O=C(/C=C/c1ccc(O)c(O)c1)O[C@@H]1C[C@](O)(C(=O)O)C[C@@H](O)[C@H]1O [CGA, Chlorogenic acid]	3.6	
O=C(O)/C=C/c1ccc(O)c(O)c1 [caffeic acid]	4.5	
O=C(O)[C@]1(O)C[C@@H](O)[C@@H](O)[C@H](O)C1 [quinic acid]	3.4	
L. gasseri: CGA esterase from the bacterium L. gasseri (Fritsch et al., 2017) (protein, listed as Lactobacillus gasseri) MKLKKKKVGIYMATITIERDGLNLVGTREEPFGEIYDMAIIFHGFTANRNTPLLKEIADELRDENIASVRFDFNGHGDSDGKFENMTVLNEIEDANAILNYVKTDPHVRNIYLVGHSQGGVVASMLAGLYPDIIKKVVLLAPAATLKTDALNGSTQGVKYNPDHIPDRLPFKDLTLGFYLRIAQQLPIYEVSVHFTRPVCLIHGANDTWSPDASKKYDQVYENSTLHLVEGADHSFTDTYQKTAADLTAEFLQDNNTF		Temperature-dependence of activity [2]: very weak temperature-dependence
L. johnsonii: CGA esterase from L. johnsonii (Lai et al., 2009) (protein, listed as Lactobacillus johnsonii) MATTITLERDGLQLVGTREEPFGEIYDMAIIFHGFTANRNTSLLKEIANSLRDENIASVRFDFNGHGDSDGKFENMTVLNEIEDANAILNYVKTDPHVRNIYLVGHSQGGVVASMLAGLYPDLIKKVVLLAPAATLKSDALEGNTQGVTYNPDHIPDRLPFKDLTLGFYLRIAQQLPIYEVSAQFTKPVCLIHGTDDTWSPNASKKYDQIYQNSTLHLIEGADHCFSDSYQKNAVNLTTDFLQNNNAF		Km [3]: 53 µM
